The NIST ThermoML archive (doi:10.1021/acs.jced.8b00399)

Test: mn = molality of the nth substance listed, in mol/kg
Settings: 99.6 kPa, Liquid; for viscosity: Capillary tube (Ostwald / Ubbelohde) method; for mass density: Vibrating tube method

CNC(C)=O [N-methylacetamide] + [Cl-].[Cl-].[Zn+2]
Settings | mass density, 308.15 K [kg/m3] | mass density, 313.15 K [kg/m3] | mass density, 318.15 K [kg/m3] | mass density, 323.15 K [kg/m3] | mass density, 328.15 K [kg/m3] | viscosity, 308.15 K [mPa·s] | viscosity, 313.15 K [mPa·s] | viscosity, 318.15 K [mPa·s] | viscosity, 323.15 K [mPa·s] | viscosity, 328.15 K [mPa·s]
m2 = 0 | 946.01 | 941.81 | 937.59 | 933.36 | 929.17 | 3.57 | 3.152 | 2.8 | 2.496 | 2.245
m2 = 0.01212 | 947.01 | 942.99 | 938.78 | 934.4 | 930.23 | 3.595 | 3.169 | 2.819 | 2.512 | 2.26
m2 = 0.02085 | 948.03 | 943.83 | 939.63 | 935.24 | 931.05 | 3.615 | 3.186 | 2.834 | 2.528 | 2.271
m2 = 0.04092 | 949.55 | 945.27 | 941.06 | 936.82 | 932.75 | 3.653 | 3.223 | 2.868 | 2.558 | 2.296
m2 = 0.04735 | 950.23 | 946.04 | 941.77 | 937.56 | 933.2 | 3.669 | 3.232 | 2.876 | 2.566 | 2.304
m2 = 0.05898 | 951.13 | 946.91 | 942.72 | 938.63 | 934.26 | 3.698 | 3.255 | 2.895 | 2.584 | 2.319
m2 = 0.06108 | 951.43 | 947.18 | 942.96 | 938.78 | 934.52 | 3.703 | 3.262 | 2.9 | 2.586 | 2.322
m2 = 0.07786 | 952.85 | 948.65 | 944.45 | 940.25 | 935.97 | 3.743 | 3.293 | 2.928 | 2.612 | 2.344
m2 = 0.09351 | 954.27 | 949.99 | 945.73 | 941.52 | 937.33 | 3.778 | 3.324 | 2.955 | 2.635 | 2.364
m2 = 0.1025 | 955.14 | 950.92 | 946.63 | 942.41 | 938.12 | 3.797 | 3.347 | 2.972 | 2.652 | 2.378
m2 = 0.1083 | 955.59 | 951.41 | 947.14 | 942.93 | 938.6 | 3.81 | 3.354 | 2.982 | 2.659 | 2.384
m2 = 0.1702 | 961.31 | 957.1 | 952.84 | 948.64 | 944.4 | 3.964 | 3.495 | 3.099 | 2.765 | 2.475
m2 = 0.2236 | 966.13 | 961.88 | 957.61 | 953.37 | 949.14 | 4.112 | 3.611 | 3.202 | 2.854 | 2.553
m2 = 0.372 | 979.32 | 975.11 | 970.87 | 966.57 | 962.36 | 4.544 | 3.97 | 3.516 | 3.132 | 2.795
m2 = 0.6919 | 1007.77 | 1003.5 | 999.23 | 994.92 | 990.69 | 5.686 | 4.929 | 4.32 | 3.82 | 3.381
m2 = 1.299 | 1060.68 | 1056.36 | 1052 | 1047.7 | 1043.43 | 8.811 | 7.487 | 6.416 | 5.603 | 4.9
